The results in this text go back to patent US7378435B2, “Aryl-isoxazole-4-carbonyl-indole-carboxylic acid amide derivatives” (Hoffmann-La Roche Inc., priority 2005, dated 2008).

Where two headings read alike, the source gives them in different places.

For the experiment, the target named is T1, GABA A receptor α5β3γ2 (Homo sapiens, UniProt P18507+P31644).
T1 construct: expressed in transfected cells; host or cells: HEK293 (transiently transfected for the human receptors)
The experiment is described as follows: [3H]flumazenil competition binding, human GABA A α5β3γ2 receptors expressed in HEK293 cells. The procedure:
The affinity of compounds at GABA A receptor subtypes was measured by competition for [3H]flumazenil (85 Ci/mmol; Roche) binding to HEK293 cells expressing rat (stably transfected) or human (transiently transfected) receptors of composition α1β3γ2, α2β3γ2, α3β3γ2 and α5β3γ2.
Cell pellets were suspended in Krebs-tris buffer (4.8 mM KCl, 1.2 mM CaCl2, 1.2 mM MgCl2, 120 mM NaCl, 15 mM Tris; pH 7.5; binding assay buffer), homogenized by polytron for ca. 20 sec on ice and centrifuged for 60 min at 4° C. (50000 g; Sorvall, rotor: SM24=20000 rpm). The cell pellets were resuspended in Krebs-tris buffer and homogenized by polytron for ca. 15 sec on ice. Protein was measured (Bradford method, Bio-Rad) and aliquots of 1 mL were prepared and stored at −80° C.
Radioligand binding assays were carried out in a volume of […] (96-well plates) which contained […] of cell membranes, [3H]flumazenil at a concentration of 1 nM for α1, α2, α3 subunits and 0.5 nM for α5 subunits and the test compound in the range of […]. Nonspecific binding was defined by 10^−5 M diazepam and typically represented less than 5% of the total binding. Assays were incubated to equilibrium for 1 hour at 4° C. and harvested onto GF/C uni-filters (Packard) by filtration using a Packard harvester and washing with ice-cold wash buffer (50 mM Tris; pH 7.5). After drying, filter-retained radioactivity was detected by liquid scintillation counting. Ki values were calculated using Excel-Fit (Microsoft) and are the means of two determinations.

The mark [1] stands for this setting: Table 1, human α5, [3H]flumazenil, mean of two determinations, read-out: Ki h.
[2] abbreviates: human α5β3γ2, 0.5 nM [3H]flumazenil, mean of two determinations, read-out: Ki[μM] hα5.

`Cc1onc(-c2ccc(F)cc2)c1C(=O)c1c[nH]c2cc(C(=O)NCc3ccco3)ccc12` [Example 15, 3-[3-(4-Fluoro-phenyl)-5-methyl-isoxazole-4-carbonyl]-1H-indole-6-carboxylicacid (furan-2-ylmethyl)-amide]: the Ki came to 0.00485 µM under setting [1] and 0.00484 µM under setting [2].

As to `C#CCNC(=O)c1ccc2c(C(=O)c3c(-c4cccc(F)c4)noc3C)cn(-c3ccccc3)c2c1` [Example 49, 3-[3-(3-Fluoro-phenyl)-5-methyl-isoxazole-4-carbonyl]-1-phenyl-1H-indole-6-carboxylic acidprop-2-ynylamide], the inhibition constant Ki is, setting by setting: under setting [1], 0.0085 µM; under setting [2], 0.0085 µM.

For the compound `Cc1onc(-c2ccccc2)c1C(=O)c1c[nH]c2cc(C(=O)NC3CCC3)ccc12` [Example 9, 3-(5-Methyl-3-phenyl-isoxazole-4-carbonyl)-1H-indole-6-carboxylicacidcyclobutylamide], the inhibitory constant (Ki) under setting [1] was found to be 0.00435 µM and the inhibition constant (Ki) under setting [2] is 0.00435 µM.

Regarding `Cc1onc(-c2ccccc2)c1C(=O)c1c[nH]c2cc(C(=O)NCC3CC3)ccc12` [Example 2, 3-(5-Methyl-3-phenyl-isoxazole-4-carbonyl)-1H-indole-6-carboxylicacidcyclopropylmethyl-amide], the Ki under setting [1] worked out at 0.00545 µM and the inhibition constant Ki under setting [2] came to 0.00545 µM.

On to `Cc1onc(-c2cccc(F)c2)c1C(=O)c1c[nH]c2cc(C(=O)NCC3CC3)ccc12` [Example 30, 3-[3-(3-Fluoro-phenyl)-5-methyl-isoxazole-4-carbonyl]-1H-indole-6-carboxylicacidcyclopropylmethyl-amide], for which the Ki under setting [1] stood at 0.0537 µM.

For the compound `CC(C)c1onc(-c2cccc(F)c2)c1C(=O)c1c[nH]c2cc(C(=O)NCc3ccco3)ccc12` [Example 36, 3-[3-(3-Fluoro-phenyl)-5-isopropyl-isoxazole-4-carbonyl]-1H-indole-6-carboxylicacid (furan-2-ylmethyl)-amide], the inhibitory constant (Ki) under setting [1] came out at 0.0454 µM.

On to `Cc1onc(-c2cccc(F)c2)c1C(=O)c1c[nH]c2cc(C(=O)NCCc3cnc[nH]3)ccc12` [Example 26, 3-[3-(3-Fluoro-phenyl)-5-methyl-isoxazole-4-carbonyl]-1H-indole-6-carboxylicacid [2-(1H-imidazol-4-yl)-ethyl]-amide], for which the Ki under setting [1] was 0.0235 µM.

Take `CC(C)c1onc(-c2cccc(F)c2)c1C(=O)c1c[nH]c2cc(C(=O)NCC3CC3)ccc12` [Example 37, 3-[3-(3-Fluoro-phenyl)-5-isopropyl-isoxazole-4-carbonyl]-1H-indole-6-carboxylicacidcyclopropylmethyl-amide]: the Ki under setting [1] was 0.0393 µM.

In the case of `Cc1onc(-c2ccccc2)c1C(=O)c1c[nH]c2cc(C(=O)NCc3ccco3)ccc12` [Example 7, 3-(5-Methyl-3-phenyl-isoxazole-4-carbonyl)-1H-indole-6-carboxylicacid (furan-2-ylmethyl)-amide], the Ki amounted to 0.0053 µM under setting [1] and 0.0053 µM under setting [2].

For the compound `Cc1onc(-c2ccccc2)c1C(=O)c1c[nH]c2cc(C(=O)NCCN3CCOCC3)ccc12` [Example 6, 3-(5-Methyl-3-phenyl-isoxazole-4-carbonyl)-1H-indole-6-carboxylicacid (2-morpholin-4-yl-ethyl)-amide], the Ki is, setting by setting: under setting [1], 0.0033 µM; under setting [2], 0.0033 µM.

For `Cc1onc(-c2cccc(F)c2)c1C(=O)c1cn(-c2ccccc2)c2cc(C(=O)NC3CCCC3)ccc12` [Example 51, 3-[3-(3-Fluoro-phenyl)-5-methyl-isoxazole-4-carbonyl]-1-phenyl-1H-indole-6-carboxylic acidcyclopentylamide], the inhibition constant (Ki) was 0.0402 µM.

`Cc1onc(-c2ccc(F)cc2)c1C(=O)c1c[nH]c2cc(C(=O)NC3CCCC3)ccc12` [Example 22, 3-[3-(4-Fluoro-phenyl)-5-methyl-isoxazole-4-carbonyl]-1H-indole-6-carboxylicacidcyclopentylamide]: the inhibition constant Ki worked out at 0.00975 µM under setting [1] and 0.00975 µM under setting [2].

For the compound `Cc1onc(-c2ccc(F)cc2)c1C(=O)c1c[nH]c2cc(C(=O)NCC3CC3)ccc12` [Example 1, 3-[3-(4-Fluoro-phenyl)-5-methyl-isoxazole-4-carbonyl]-1H-indole-6-carboxylic acid cyclopropylmethyl-amide], the Ki under setting [2] is 0.00645 µM.

As to `Cc1onc(-c2ccc(F)cc2)c1C(=O)c1c[nH]c2cc(C(=O)NCCO)ccc12` [Example 18, 3-[3-(4-Fluoro-phenyl)-5-methyl-isoxazole-4-carbonyl]-1H-indole-6-carboxylicacid (2-hydroxy-ethyl)-amide], the Ki amounted to 0.00185 µM under setting [1] and 0.00185 µM under setting [2].

With `Cc1onc(-c2ccc(F)cc2)c1C(=O)c1c[nH]c2cc(C(=O)NC3CCOCC3)ccc12` [Example 21, 3-[3-(4-Fluoro-phenyl)-5-methyl-isoxazole-4-carbonyl]-1H-indole-6-carboxylicacid (tetrahydro-pyran-4-yl)-amide], the Ki came to 0.005 µM under setting [1] and 0.005 µM under setting [2].

As to `Cc1onc(-c2cccc(F)c2)c1C(=O)c1cn(-c2ccccc2)c2cc(C(=O)NCc3ccco3)ccc12` [Example 47, 3-[3-(3-Fluoro-phenyl)-5-methyl-isoxazole-4-carbonyl]-1-phenyl-1H-indole-6-carboxylic acid(furan-2-ylmethyl)-amide], the Ki under setting [1] stood at 0.0253 µM.

With `Cc1onc(-c2ccc(F)cc2)c1C(=O)c1c[nH]c2cc(C(=O)NC3CCC3)ccc12` [Example 25, 3-[3-(4-Fluoro-phenyl)-5-methyl-isoxazole-4-carbonyl]-1H-indole-6-carboxylicacidcyclobutylamide], the inhibitory constant (Ki) was found to be 0.00675 µM under setting [1] and 0.00675 µM under setting [2].

Take `Cc1onc(-c2cccc(F)c2)c1C(=O)c1cn(-c2ccccc2)c2cc(C(=O)NCC3CC3)ccc12` [Example 48, 3-[3-(3-Fluoro-phenyl)-5-methyl-isoxazole-4-carbonyl]-1-phenyl-1H-indole-6-carboxylic acidcyclopropylmethyl-amide]: the Ki under setting [1] came to 0.0138 µM.

For `Cc1onc(-c2cccc(F)c2)c1C(=O)c1cn(C)c2cc(C(=O)NCC3CC3)ccc12` [Example 43, 3-[3-(3-Fluoro-phenyl)-5-methyl-isoxazole-4-carbonyl]-1-methyl-1H-indole-6-carboxylic acidcyclopropylmethyl-amide], the affinity corresponds to a Ki of 0.0667 µM.

In the case of `Cc1onc(-c2cccc(F)c2)c1C(=O)c1c[nH]c2cc(C(=O)NCc3ccccn3)ccc12` [Example 27, 3-[3-(3-Fluoro-phenyl)-5-methyl-isoxazole-4-carbonyl]-1H-indole-6-carboxylicacid (pyridin-2-ylmethyl)-amide], the Ki under setting [1] was determined as 0.0394 µM.

In the case of `Cc1onc(-c2ccccc2)c1C(=O)c1c[nH]c2cc(C(=O)NC3CCOCC3)ccc12` [Example 11, 3-(5-Methyl-3-phenyl-isoxazole-4-carbonyl)-1H-indole-6-carboxylicacid (tetrahydro-pyran-4-yl)-amide], the inhibition constant Ki under setting [1] was 0.00545 µM and the Ki under setting [2] was determined as 0.00545 µM.

`C#CCNC(=O)c1ccc2c(C(=O)c3c(-c4cccc(F)c4)noc3C)cn(C)c2c1` [Example 44, 3-[3-(3-Fluoro-phenyl)-5-methyl-isoxazole-4-carbonyl]-1-methyl-1H-indole-6-carboxylic acidprop-2-ynylamide] showed a Ki of 0.0383 µM.

Turning to `C#CCNC(=O)c1ccc2c(C(=O)c3c(-c4ccccc4)noc3C)c[nH]c2c1` [Example 3, 3-(5-Methyl-3-phenyl-isoxazole-4-carbonyl)-1H-indole-6-carboxylicacid prop-2-ynylamide], the inhibitory constant (Ki) turned out to be 0.0029 µM under setting [1] and 0.0029 µM under setting [2].

As for `Cc1onc(-c2cccc(F)c2)c1C(=O)c1cn(C)c2cc(C(=O)NC3CCCC3)ccc12` [Example 46, 3-[3-(3-Fluoro-phenyl)-5-methyl-isoxazole-4-carbonyl]-1-methyl-1H-indole-6-carboxylic acidcyclopentylamide], the Ki under setting [1] stood at 0.111 µM.
